In patent US20250221966A1, “RXFP1 AGONISTS” (BRISTOL-MYERS SQUIBB COMPANY, priority 2021, published 2025) one finds EC50 and first-phase pharmacokinetic half-life data, which are given here for 21 molecules.

One may read the EC50 as the concentration at which the effect is half-maximal.

For one data set, the target named is T1, human RXFP1 (Homo sapiens, UniProt Q9HBX9).
T1 construct: expressed in transfected cells
T1 sequence (Q9HBX9 1-757): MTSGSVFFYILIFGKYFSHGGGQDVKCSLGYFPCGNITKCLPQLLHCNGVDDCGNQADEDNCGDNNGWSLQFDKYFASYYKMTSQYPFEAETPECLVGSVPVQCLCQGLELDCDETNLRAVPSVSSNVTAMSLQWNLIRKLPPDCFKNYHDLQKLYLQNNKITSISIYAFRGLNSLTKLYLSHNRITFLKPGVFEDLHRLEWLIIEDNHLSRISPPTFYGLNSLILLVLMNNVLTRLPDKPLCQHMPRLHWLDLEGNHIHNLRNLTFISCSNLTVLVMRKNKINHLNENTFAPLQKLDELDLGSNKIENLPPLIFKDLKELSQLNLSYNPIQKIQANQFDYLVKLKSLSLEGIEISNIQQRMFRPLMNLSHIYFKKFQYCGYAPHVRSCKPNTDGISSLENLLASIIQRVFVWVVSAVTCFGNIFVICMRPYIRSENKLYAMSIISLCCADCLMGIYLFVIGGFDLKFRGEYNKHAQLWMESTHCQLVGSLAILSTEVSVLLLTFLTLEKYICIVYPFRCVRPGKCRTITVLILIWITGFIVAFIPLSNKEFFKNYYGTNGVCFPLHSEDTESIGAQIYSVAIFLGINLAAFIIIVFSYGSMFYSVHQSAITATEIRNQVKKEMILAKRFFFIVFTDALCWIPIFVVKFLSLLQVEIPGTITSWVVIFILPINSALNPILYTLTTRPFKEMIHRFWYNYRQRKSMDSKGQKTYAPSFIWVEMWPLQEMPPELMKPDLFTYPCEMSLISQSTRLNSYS
In words: RXFP1 cAMP assay (hRXFP1 HEK293 cAMP assay, HTRF). Particulars: HEK293 cells stably expressing human RXFP1, 30 min at room temperature, read-out: cAMP hRXFP1 HEK293 Assay EC50. Type of data set: cell-based. The procedure, abridged: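 hRXFP1-HEK293 stable line; HBSS + Ca/Mg, 20 mM HEPES, 0.05% BSA, 0.5 mM IBMX; cpd 0.010 nM–50 μM, 2% DMSO; 30 min RT; lysis, HTRF cAMP detection; 4-PL fit.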
On the technique in general: cAMP levels reflect the balance of adenylyl cyclase and phosphodiesterase activity.
As to `COc1ccc(-c2cc(C3=NOC4CC(CO)CC34)ccc2F)cc1C(=O)N[C@H]1[C@@H](C(=O)Nc2ccc(F)c(C(F)(F)F)c2)[C@H]2CC[C@@H]1/C2=C\C1CCCC1` (stereo partly drawn) [compound 952], the concentration for a half-maximal effect (EC50) was found to be 1.5 nM. Take `COc1ccc(-c2cc(C3=NOC4CC(CO)CC34)ccc2F)cc1C(=O)N[C@H]1[C@@H](C(=O)Nc2ccc(F)c(C(F)(F)F)c2)[C@H]2CC[C@@H]1/C2=C\C1CC1` (stereo partly drawn) [compound 953]: the EC50 turned out to be 7 nM. On to `COc1ccc(-c2cc(C3=NOC4CC(CO)CC34)ccc2F)cc1C(=O)N[C@H]1[C@@H](C(=O)Nc2ccc(F)c(C(F)(F)F)c2)[C@H]2CC[C@@H]1/C2=C\C1CC1` (stereo partly drawn) [compound 954], for which the EC50 came out at 5.3 nM. Still for that read-out and setting: the same measure for `COc1ccc(-c2cc([C@H](NC(=O)C3CCOCC3)C(F)(F)F)ccc2F)cc1C(=O)N[C@H]1[C@@H](C(=O)Nc2ccc(F)c(C(F)(F)F)c2)[C@H]2CC[C@@H]1/C2=C\C1CCCC1` [compound 955]: 0.1 nM; for `COc1ccc(-c2cc([C@@H](NC(=O)C3CCOCC3)C(F)(F)F)ccc2F)cc1C(=O)N[C@H]1[C@@H](C(=O)Nc2ccc(F)c(C(F)(F)F)c2)[C@H]2CC[C@@H]1/C2=C\C1CCCC1` [compound 956]: 6.1 nM; for `COc1ccc(-c2cc(S(=O)(=O)NC(C)(C)C)ccc2F)cc1C(=O)N[C@H]1[C@@H](C(=O)N[C@H](C)C2(C)CC2)[C@H]2CC[C@@H]1/C2=C\C1CC1` [compound 957]: 5.3 nM. The same measure, in the same setting: the same measure for `COc1ccc(-c2cc(S(=O)(=O)NC(C)(C)C)ccc2F)cc1C(=O)N[C@H]1[C@@H](C(=O)Nc2ccc(F)c(C(F)(F)F)c2)[C@H]2CC[C@@H]1/C2=C\C1CCCC1` [compound 958]: 0.9 nM. As for `COc1ccc(C2=NOC3CC(CO)CC23)cc1C(=O)N[C@H]1[C@@H](C(=O)Nc2ccc(F)c(C(F)(F)F)c2)[C@H]2CC[C@@H]1/C2=C\CC1CC(F)(F)C1` (stereo partly drawn) [compound 959], the EC50 was found to be 6.1 nM. The same measure, in the same setting: then `COc1c(F)cc(C2=NOC3CC(C)(CO)CC23)cc1C(=O)N[C@H]1[C@@H](C(=O)N[C@H](C)C2(C)CC2)[C@H]2CC[C@@H]1/C2=C\C1CC1` (stereo partly drawn) [compound 961], with 1 nM. For `COc1ccc(-c2cc(C(OC(=O)Nc3ccccc3)C(=O)O)ccc2F)cc1C(=O)N[C@H]1[C@@H](C(=O)Nc2ccc(F)c(C(F)(F)F)c2)[C@H]2CC[C@@H]1/C2=C\C1CC1` (stereo partly drawn) [compound 965], the concentration giving a half-maximal response (EC50) turned out to be 4.8 nM. The same measure, in the same setting: then `COc1ccc(-c2cc([C@H](OC(=O)NC3CCC3)C(F)(F)F)ccc2F)cc1C(=O)N[C@H]1[C@@H](C(=O)N[C@H](C)C2(C)CC2)[C@H]2CC[C@@H]1/C2=C\CCC(F)(F)F` [compound 966], with 6.9 nM; and `COc1ccc(-c2cc([C@H](OC(=O)NC3CCC3)C(F)(F)F)ccc2F)cc1C(=O)N[C@H]1[C@@H](C(=O)N[C@H](C)C2(C)CC2)[C@H]2CC[C@@H]1/C2=C\C1CC(F)(F)C1` [compound 967], with 2.1 nM; and `COc1ccc(-c2cc(C(N)C(=O)O)ccc2F)cc1C(=O)NC1[C@@H]2CC[C@@H](/C2=C/C2CC2)[C@@H]1C(=O)Nc1ccc(F)c(C(F)(F)F)c1` (stereo partly drawn) [compound 969], with 3.6 nM.

On to `COc1c(F)cc(-c2cc([C@H](OC(=O)NC3CCC3)C(F)(F)F)ccc2F)cc1C(=O)N[C@H]1[C@@H](C(=O)N[C@H](C)C2(C)CC2)[C@H]2CC[C@@H]1/C2=C\C1CC(F)(F)C1` [compound 970], for which the half-maximal effective concentration (EC50) is 2 nM.

As to `COc1ccc(-c2cc(C(NC(=O)C3CCOCC3)C(=O)O)ccc2F)cc1C(=O)N[C@H]1[C@@H](C(=O)N[C@H](C)C2(C)CC2(F)F)[C@H]2CC[C@@H]1/C2=C\C1CC(F)(F)C1` (stereo partly drawn) [compound 971], the concentration for a half-maximal effect (EC50) stood at 2.8 nM. On the same count and under the same terms, then `COc1ccc(C2=NOC3CC(CO)CC23)cc1C(=O)N[C@@H]1C2CCC(/C2=C/C2CC2)[C@@H]1C(=O)Nc1ccc(F)c(OC(F)(F)F)c1` (stereo partly drawn) [compound 972], with 1.9 nM. The same measure, in the same setting: then `COc1ccc(C2=NOC3COCC23)cc1C(=O)N[C@@H]1C2CCC(/C2=C/C2CC2)[C@@H]1C(=O)Nc1ccc(F)c(OC(F)(F)F)c1` (stereo partly drawn) [compound 973], with 5.8 nM. Same read-out and setting: then `COc1ccc(-c2cnc3cc(CO)ccn23)cc1C(=O)N[C@@H]1C2CCC(/C2=C/C2CC2)[C@@H]1C(=O)Nc1ccc(F)c(C(F)(F)F)c1` (stereo partly drawn) [compound 974], with 4.5 nM. For the molecule `COc1cc(F)c(F)cc1C(=O)N[C@@H]1C2CCC(C2Cc2ccccc2)[C@@H]1C(=O)Nc1ccc(F)c(C(F)(F)F)c1` (stereo partly drawn) [compound 976], the 50% effective concentration (EC50) stood at 710 nM.

The same data set, now with this note: cAMP hRXFP1 HEK293 Assay EC50, HEK293 cells stably expressing human RXFP1, 30 min at room temperature.
`COc1cc(F)c(F)cc1C(=O)N[C@@H]1[C@H](C(=O)Nc2ccc(F)c(C(F)(F)F)c2)[C@@H]2CC[C@H]1C2C(C)C` (stereo partly drawn) [compound 975]: a half-maximal effect (EC50) was put at 1000 nM.

Tested on in a further data set: not given
Experiment: not given
The note with it: intravenous (IV) formulation; cited from earlier work.
Consider Serelaxin, for which the first-phase pharmacokinetic half-life was 5.4 min.
